Laboratory results published in ChEMBL document CHEMBL3352163, “Anthracene-9, 10-dione derivatives induced apoptosis in human cervical cancer cell line (CaSki) by interfering with HPV E6 expression” (Eur J Med Chem, 2014).
The source made the active and inactive calls. The rule behind the calls is not given here.

What was measured:
HepG2 [1] = assay: Cytotoxicity against human HepG2 cells at 10 uM after 72 hrs by MTT assay; type: functional
[2] = Cytotoxicity against human KATO III cells at 10 uM after 72 hrs by MTT assay; type: functional, KATO III cell
[3] = Cytotoxicity against human CaSki cells at 10 uM after 72 hrs by MTT assay; type: functional, Ca-Ski
SW-620 = assay: Cytotoxicity against human SW620 cells at 10 uM after 72 hrs by MTT assay; type: functional
[4] = Cytotoxicity against human ChaGo cells at 10 uM after 72 hrs by MTT assay; type: functional
[5] = Cytotoxicity against human CaSki cells after 72 hrs by MTT assay; type: functional, cell-based; settings: Ca-Ski
Ca-Ski [6] = assay: Induction of apoptosis in human CaSki cells carrying HPV assessed as inhibition of Bcl-2 protein expression at 0.3 uM after 24 hrs by Western blotting analysis; type: functional, cell-based
Ca-Ski [7] = assay: Induction of apoptosis in human CaSki cells carrying HPV assessed as increase in p53 protein expression after 24 hrs by Western blotting analysis; type: functional, cell-based
[8] = Cell cycle arrest in human CaSki cells assessed as accumulation at G2/M phase at 1.5 uM after 24 hrs by propidium iodide staining-based FACS analysis (reference value: 18.0%); type: functional; settings: Ca-Ski
Ca-Ski [9] = assay: Induction of apoptosis in human CaSki cells carrying HPV assessed as increase in procaspase-3 protein expression after 24 hrs by Western blotting analysis; type: functional, cell-based
Ca-Ski [10] = assay: Cytotoxicity against human CaSki cells at 10 uM in presence of glutathione relative to control; type: functional, cell-based
[11] = Cell cycle arrest in human CaSki cells assessed as accumulation at G0 phase at 3 uM after 24 hrs by propidium iodide staining-based FACS analysis (reference value: 1.5%); type: functional; settings: Ca-Ski
[12] = Cytotoxicity against human WI38 cells after 72 hrs by MTT assay; type: cell-based; settings: WI-38, 72 h
[13] = Cell cycle arrest in human CaSki cells assessed as accumulation at G2/M phase after 24 hrs by propidium iodide staining-based FACS analysis; type: functional; settings: Ca-Ski
HepG2 [14] = assay: Cytotoxicity against human HepG2 cells after 72 hrs by MTT assay; type: functional, cell-based; settings: HepG2, 72 h
[15] = Cell cycle arrest in human CaSki cells assessed as accumulation at S phase at 3 uM after 24 hrs by propidium iodide staining-based FACS analysis (reference value: 14.1%); type: functional; settings: Ca-Ski
[16] = Cytotoxicity against human KATO III cells after 72 hrs by MTT assay; type: functional, cell-based, KATO III cell
[17] = Cell cycle arrest in human CaSki cells assessed as accumulation at G2/M phase at 0.3 uM after 24 hrs by propidium iodide staining-based FACS analysis (reference value: 18.0%); type: functional; settings: Ca-Ski
[18] = Cell cycle arrest in human CaSki cells assessed as accumulation at S phase at 1.5 uM after 24 hrs by propidium iodide staining-based FACS analysis (reference value: 14.1%); type: functional; settings: Ca-Ski
[19] = Cell cycle arrest in human CaSki cells assessed as accumulation at G0 phase at 1.5 uM after 24 hrs by propidium iodide staining-based FACS analysis (reference value: 1.5%); type: functional; settings: Ca-Ski
[20] = Cell cycle arrest in human CaSki cells assessed as accumulation at G0 phase at 0.3 uM after 24 hrs by propidium iodide staining-based FACS analysis (reference value: 1.5%); type: functional; settings: Ca-Ski
Ca-Ski [21] = assay: Induction of apoptosis in human CaSki cells carrying HPV assessed as downregulation of Akt phosphorylation after 24 hrs by Western blotting analysis; type: functional, cell-based
[22] = Cell cycle arrest in human CaSki cells assessed as accumulation at G2/M phase at 3 uM after 24 hrs by propidium iodide staining-based FACS analysis (reference value: 18.0%); type: functional; settings: Ca-Ski
Ca-Ski [23] = assay: Inhibition of colony formation in human CaSki cells at 5 uM after 24 hrs by crystal violet staining-based fluorescence microscopy; type: functional, cell-based
[24] = Cell cycle arrest in human CaSki cells assessed as accumulation at S phase at 0.3 uM after 24 hrs by propidium iodide staining-based FACS analysis (reference value: 14.1%); type: functional; settings: Ca-Ski
[25] = Cell cycle arrest in human CaSki cells assessed as accumulation at G1 phase at 3 uM after 24 hrs by propidium iodide staining-based FACS analysis (reference value: 61.3%); type: functional; settings: Ca-Ski
Ca-Ski [26] = assay: Induction of apoptosis in human CaSki cells carrying HPV assessed as reduction of E6 mRNA expression at 0.3 uM after 24 hrs by RT-PCR analysis; type: functional, cell-based
[27] = Cell cycle arrest in human CaSki cells assessed as accumulation at G1 phase at 0.3 uM after 24 hrs by propidium iodide staining-based FACS analysis (reference value: 61.3%); type: functional; settings: Ca-Ski
Ca-Ski [28] = assay: Induction of apoptosis in human CaSki cells by DAPI staining-based fluorescence microscopy; type: functional, cell-based
[29] = Cell cycle arrest in human CaSki cells assessed as accumulation at G1 phase at 1.5 uM after 24 hrs by propidium iodide staining-based FACS analysis (reference value: 61.3%); type: functional; settings: Ca-Ski
[30] = Cytotoxicity against human ChaGo cells after 72 hrs by MTT assay; type: functional, cell-based

Work on `Cc1ccc(S(=O)(=O)Oc2ccc(NCCc3ccccc3)c3c2C(=O)c2ccccc2C3=O)cc1` yielded an Activity (HepG2 [1]) of 8.3%, an Activity [2] of 42.5% and an Activity [3] of 27.4%. It also gave an Activity (SW-620) of 49.5% and an Activity [4] of 13.3%.
In the case of `CCN(CC)c1ccc(OS(=O)(=O)c2ccc(C)cc2)c2c1C(=O)c1ccccc1C2=O`, the Activity (HepG2 [1]) is reported as 35.6%, the Activity [2] is reported as 39.9% and the IC50 [5] is reported as 0.3 µM. For the same compound, the Activity [3] was 50%, the Activity (SW-620) was 32.6% and the Activity [4] was 43.9%.
With `O=C1c2ccccc2C(=O)c2c(O)ccc(O)c21` [QUINIZARIN] the Activity (HepG2 [1]) was 5.6%, the Activity [2] was 38.4% and the IC50 [5] was > 10 µM. For the same compound, the Activity [3] was 48.6%, the Activity (SW-620) was 21.1% and the Activity [4] was 12.3%.
In the case of `Cc1ccc(S(=O)(=O)Oc2ccc(NCc3ccccc3)c3c2C(=O)c2ccccc2C3=O)cc1`, the inhibition (Ca-Ski [6]) is reported as “Active”, the Activity (HepG2 [1]) is reported as 40.5% and the Activity (Ca-Ski [7]) is reported as “Active”. The Activity [8] was 33.8%, the Activity (Ca-Ski [9]) was “Active” and the Activity (Ca-Ski [10]) was “Active”. For the same compound, the Activity [11] was 10.9%, the IC50 [12] was > 10 µM and the Activity [13] was “Dose-dependent effect”. The IC50 (HepG2 [14]) was > 5.7 µM, the Activity [15] was 14.2% and the Activity [2] was 41.5%. For the same compound, the IC50 [16] was > 5.7 µM, the Activity [17] was 19.5% and the Activity [3] was 84.5%. For the same compound, the Activity [18] was 13.7%, the Activity (SW-620) was 49.1% and the Activity [19] was 11%. The Activity [20] was 1.9%, the Activity (Ca-Ski [21]) was “Dose-dependent effect” and the Activity [22] was 46.2%. The Activity [4] was 39.8%, the inhibition (Ca-Ski [23]) was “Active” and the Activity [24] was 12.6%. For the same compound, the Activity [25] was 12.4%, the Activity (Ca-Ski [26]) was “Active” and the Activity [27] was 62%. For the same compound, the Activity (Ca-Ski [28]) was “Dose-dependent effect”, the Activity [29] was 31.7% and the IC50 [30] was > 5.7 µM.
Work on `Cc1ccc(S(=O)(=O)Oc2ccc(OS(=O)(=O)c3ccc(C)cc3)c3c2C(=O)c2ccccc2C3=O)cc1` yielded an Activity (HepG2 [1]) of 11.9%, an Activity [2] of 31.1% and an Activity [3] of 36.4%. For the same compound, the Activity (SW-620) was 22.2% and the Activity [4] was 5.8%.
`Cc1ccc(S(=O)(=O)Oc2ccc(NCCN3CCOCC3)c3c2C(=O)c2ccccc2C3=O)cc1` gave an Activity (HepG2 [1]) of 11.1%, an Activity [2] of 29.3% and an Activity [3] of 42.8%. The Activity (SW-620) was 19.4% and the Activity [4] was 4.9%.
Compound `Cc1ccc(S(=O)(=O)Oc2ccc(N3CCOCC3)c3c2C(=O)c2ccccc2C3=O)cc1` has an Activity (HepG2 [1]) of 6.1%, an Activity [2] of 35.3% and an Activity [3] of 43.8%. The Activity (SW-620) was 22.3% and the Activity [4] was 11.3%.
